Data published in PubChem BioAssay AID1259407 (Chemical Carcinogenesis Research Information System (CCRIS), 2018).
Active and inactive are the calls of the source. No rule for the calls is given here.

Tested on: CCRIS mutagenicity, Ames/micronucleus/aberration tests
Assay: CCRIS mutagenicity studies
[1] = Test System: AMES SALMONELLA TYPHIMURIUM, Strain/Indicator: TA98, Metabolic Activation: NONE, Method: STANDARD PLATE
[2] = Test System: AMES SALMONELLA TYPHIMURIUM, Strain/Indicator: TA100, Metabolic Activation: NONE, Method: STANDARD PLATE

## O=C1CCC(=O)N1c1ccc(Cl)c(Cl)c1Cl
[1]
  mutagenic call: inactive; negative
Test System: AMES SALMONELLA TYPHIMURIUM, Strain/Indicator: TA98, Metabolic Activation: RAT, LIVER, S-9, AROCLOR 1254, Method: STANDARD PLATE
  mutagenic call: inactive; negative
[2]
  mutagenic call: inactive; negative
Test System: AMES SALMONELLA TYPHIMURIUM, Strain/Indicator: TA100, Metabolic Activation: RAT, LIVER, S-9, AROCLOR 1254, Method: STANDARD PLATE
  mutagenic call: inactive; negative

## O=C1CN(/N=C/c2ccc([N+](=O)[O-])o2)C(=O)N1
End Point: IN VITRO CHROMOSOMAL ABERRATIONS, Test System: CHO CELLS, Metabolic Activation: NONE
  mutagenic call: active; positive
End Point: IN VITRO CHROMOSOMAL ABERRATIONS, Test System: CHO CELLS, Metabolic Activation: RAT, LIVER, S-9, AROCLOR 1254
  mutagenic call: active; positive
Test System: AMES SALMONELLA TYPHIMURIUM, Strain/Indicator: TA97, Metabolic Activation: NONE, Method: FLUCTUATION TEST
  mutagenic call: active; positive
Test System: AMES SALMONELLA TYPHIMURIUM, Strain/Indicator: TA97, Metabolic Activation: NONE, Method: STANDARD PLATE
  mutagenic call: active; positive
Test System: AMES SALMONELLA TYPHIMURIUM, Strain/Indicator: TA98(1,8-DNP6), Metabolic Activation: NONE, Method: STANDARD PLATE
  mutagenic call: active; positive
Test System: AMES SALMONELLA TYPHIMURIUM, Strain/Indicator: TA98(1,8-DNP6), Metabolic Activation: RAT, LIVER, S-9, 3-METHYLCHOLANTHRENE, Method: STANDARD PLATE
  mutagenic call: active; positive
Test System: AMES SALMONELLA TYPHIMURIUM, Strain/Indicator: TA98(NR), Metabolic Activation: NONE, Method: STANDARD PLATE
  mutagenic call: active; positive
Test System: AMES SALMONELLA TYPHIMURIUM, Strain/Indicator: TA98(NR), Metabolic Activation: RAT, LIVER, S-9, 3-METHYLCHOLANTHRENE, Method: STANDARD PLATE
  mutagenic call: active; positive
Test System: AMES SALMONELLA TYPHIMURIUM, Strain/Indicator: TA98, Metabolic Activation: HAMSTER, LIVER, S-9, AROCLOR 1254, Method: PREINCUBATION
  mutagenic call: active; positive
Test System: AMES SALMONELLA TYPHIMURIUM, Strain/Indicator: TA98, Metabolic Activation: NONE
  mutagenic call: inactive; negative
Test System: AMES SALMONELLA TYPHIMURIUM, Strain/Indicator: TA98, Metabolic Activation: NONE, Method: FLUCTUATION (MICROTITER)
  mutagenic call: active; positive
Test System: AMES SALMONELLA TYPHIMURIUM, Strain/Indicator: TA98, Metabolic Activation: NONE, Method: PREINCUBATION
  mutagenic call: active; positive
[1]
  mutagenic call: active; positive
Test System: AMES SALMONELLA TYPHIMURIUM, Strain/Indicator: TA98, Metabolic Activation: RAT, LIVER, S-9, 3-METHYLCHOLANTHRENE, Method: STANDARD PLATE
  mutagenic call: active; positive
Test System: AMES SALMONELLA TYPHIMURIUM, Strain/Indicator: TA98, Metabolic Activation: RAT, LIVER, S-9, AROCLOR 1254, Method: PREINCUBATION
  mutagenic call: active; positive
Test System: AMES SALMONELLA TYPHIMURIUM, Strain/Indicator: TA98, Metabolic Activation: S-9
  mutagenic call: inactive; negative
Test System: AMES SALMONELLA TYPHIMURIUM, Strain/Indicator: TA100, Metabolic Activation: HAMSTER, LIVER, S-9, AROCLOR 1254, Method: PREINCUBATION
  mutagenic call: active; positive
Test System: AMES SALMONELLA TYPHIMURIUM, Strain/Indicator: TA100, Metabolic Activation: NONE
  mutagenic call: active; positive
Test System: AMES SALMONELLA TYPHIMURIUM, Strain/Indicator: TA100, Metabolic Activation: NONE, Method: PREINCUBATION
  mutagenic call: active; positive
[2]
  mutagenic call: active; positive
Test System: AMES SALMONELLA TYPHIMURIUM, Strain/Indicator: TA100, Metabolic Activation: RAT, LIVER, S-9, AROCLOR 1254, Method: PREINCUBATION
  mutagenic call: active; positive
Test System: AMES SALMONELLA TYPHIMURIUM, Strain/Indicator: TA100, Metabolic Activation: S-9
  mutagenic call: active; positive
Test System: AMES SALMONELLA TYPHIMURIUM, Strain/Indicator: TA102, Metabolic Activation: NONE, Method: STANDARD PLATE
  mutagenic call: active; positive
Test System: AMES SALMONELLA TYPHIMURIUM, Strain/Indicator: TA1535, Metabolic Activation: HAMSTER, LIVER, S-9, AROCLOR 1254, Method: PREINCUBATION
  mutagenic call: inactive; negative
Test System: AMES SALMONELLA TYPHIMURIUM, Strain/Indicator: TA1535, Metabolic Activation: NONE, Method: PREINCUBATION
  mutagenic call: inactive; negative
Test System: AMES SALMONELLA TYPHIMURIUM, Strain/Indicator: TA1535, Metabolic Activation: RAT, LIVER, S-9, AROCLOR 1254, Method: PREINCUBATION
  mutagenic call: inactive; negative
Test System: AMES SALMONELLA TYPHIMURIUM, Strain/Indicator: TA1537, Metabolic Activation: HAMSTER, LIVER, S-9, AROCLOR 1254, Method: PREINCUBATION
  mutagenic call: inactive; negative
Test System: AMES SALMONELLA TYPHIMURIUM, Strain/Indicator: TA1537, Metabolic Activation: NONE, Method: FLUCTUATION (MICROTITER)
  mutagenic call: inactive; negative
Test System: AMES SALMONELLA TYPHIMURIUM, Strain/Indicator: TA1537, Metabolic Activation: NONE, Method: PREINCUBATION
  mutagenic call: inactive; negative
Test System: AMES SALMONELLA TYPHIMURIUM, Strain/Indicator: TA1537, Metabolic Activation: RAT, LIVER, S-9, AROCLOR 1254, Method: PREINCUBATION
  mutagenic call: inactive; negative
Test System: AMES SALMONELLA TYPHIMURIUM, Strain/Indicator: TA2638, Metabolic Activation: NONE, Method: STANDARD PLATE
  mutagenic call: active; positive
Test System: AMES SALMONELLA TYPHIMURIUM, Strain/Indicator: TA7001, Metabolic Activation: NONE, Method: FLUCTUATION (MICROTITER)
  mutagenic call: inactive; negative
Test System: AMES SALMONELLA TYPHIMURIUM, Strain/Indicator: TA7002, Metabolic Activation: NONE, Method: FLUCTUATION (MICROTITER)
  mutagenic call: active; positive
Test System: AMES SALMONELLA TYPHIMURIUM, Strain/Indicator: TA7003, Metabolic Activation: NONE, Method: FLUCTUATION (MICROTITER)
  mutagenic call: inactive; negative
Test System: AMES SALMONELLA TYPHIMURIUM, Strain/Indicator: TA7004, Metabolic Activation: NONE, Method: FLUCTUATION (MICROTITER)
  mutagenic call: active; positive
Test System: AMES SALMONELLA TYPHIMURIUM, Strain/Indicator: TA7005, Metabolic Activation: NONE, Method: FLUCTUATION (MICROTITER)
  mutagenic call: active; positive
Test System: AMES SALMONELLA TYPHIMURIUM, Strain/Indicator: TA7006, Metabolic Activation: NONE, Method: FLUCTUATION (MICROTITER)
  mutagenic call: active; positive
Test System: CHINESE HAMSTER OVARY, Strain/Indicator: CHO-AS52, Metabolic Activation: NONE
  mutagenic call: inactive; negative
Test System: CHINESE HAMSTER OVARY, Strain/Indicator: CHO-AS52, Metabolic Activation: RAT, LIVER, S-9, 3-METHYLCHOLANTHRENE
  mutagenic call: inactive; negative
Test System: CHINESE HAMSTER OVARY, Strain/Indicator: CHO-K1-BH4, Metabolic Activation: NONE
  mutagenic call: inactive; negative
Test System: CHINESE HAMSTER OVARY, Strain/Indicator: CHO-K1-BH4, Metabolic Activation: RAT, LIVER, S-9, 3-METHYLCHOLANTHRENE
  mutagenic call: active; positive
Test System: CHINESE HAMSTER OVARY, Strain/Indicator: CHO-UV5, Metabolic Activation: NONE
  mutagenic call: inactive; negative
Test System: CHINESE HAMSTER OVARY, Strain/Indicator: CHO-UV5, Metabolic Activation: RAT, LIVER, S-9, 3-METHYLCHOLANTHRENE
  mutagenic call: active; positive
Test System: E. COLI, Strain/Indicator: EE97, Metabolic Activation: NONE, Method: FLUCTUATION TEST
  mutagenic call: active; positive
Test System: E. COLI, Strain/Indicator: WP2 (PKM101), Metabolic Activation: NONE, Method: STANDARD PLATE
  mutagenic call: active; positive
Test System: E. COLI, Strain/Indicator: WP2, Metabolic Activation: NONE, Method: FLUCTUATION TEST
  mutagenic call: inactive; negative
Test System: E. COLI, Strain/Indicator: WP2, Metabolic Activation: NONE, Method: SPOT
  mutagenic call: active; positive
Test System: E. COLI, Strain/Indicator: WP2 UVRA (PKM101), Metabolic Activation: NONE, Method: STANDARD PLATE
  mutagenic call: active; positive
Test System: E. COLI, Strain/Indicator: WP2 UVRA, Metabolic Activation: NONE, Method: SPOT
  mutagenic call: active; positive
Test System: E. COLI, Strain/Indicator: WP2 UVRA, Metabolic Activation: NONE, Method: STANDARD PLATE
  mutagenic call: active; positive
Test System: MOUSE LYMPHOMA, Strain/Indicator: L5178Y (TK+/TK-), Metabolic Activation: NONE, Method: SUSPENSION/PLATE
  mutagenic call: active; positive
